From US9901566B1, “Limonoids for treating autoimmune diseases” (Macau University of Science and Technology, priority 2017, dated 2018)
Where “and” joins values, the source holds several entries; their conditions need not be identical. Equal entries are not always repeated. Entries after “also recorded” stand apart in the source; their conditions may differ.

Assays:
[1] = tested on: ROR-γt luciferase reporter activity; test: Lightswitch luciferase reporter assay (ROR Gamma T LUCPorter stable reporter HEK293 cells); type: cell-based; conditions: 16 h
Protocol: ROR Gamma T LUCPorter™ Stable Reporter cells and LUCPorter™ Vector Control HEK293 cells (Imgenex) were plated in 96-well plates at 5×10^4 cells/well in triplicate in RPMI 1640 medium with 10% fetal bovine serum, penicillin (100 units/mL), streptomycin (100 μg/mL) and puromycin (3 μg/mL) over night. […] Then the complete mixture of luciferase assay reagent (Biocompare, Texas, USA) has been added to the wells and the mixture has been incubated for 30 min at room temperature in the dark. The mixture has been transferred into a 96 well white plates before reading. Finally, each well was read for 2 seconds in a plate luminometer on a Microplate UV/VIS Spectrophotometer (TECAN, Switzerland). Data are obtained from three independent experiments.

Th1 differentiation = test: Flow cytometry, Th1 differentiation of naive CD4+ T cells (IFN-γ production); type: cell-based, C57BL/6 mice; conditions: for ratio of the IFN-γ producing Th1 differentiation: Th1-polarizing conditions, 3 days
Protocol: (§1) Naive CD4^+ T cells were sorted by magnetic bead (Miltenyi Biotec) from spleen of C57BL/6 mice (8-14 weeks). CD4^+ T cells (5×10^5 cells/well) were activated with 2 μg/ml of plate-bound anti-mouse CD3 (Biolegend, San Diego, USA), and 5 μg/ml of anti-mouse CD28 (Biolegend) into 24-well-plates. For Th17 differentiation, cells were cultured for 3 days in the presence of 1 ng/ml recombinant human transforming growth factor-β (TGF-β1, Biolegend), 50 ng/ml recombinant mouse interleukin-6 (IL-6, Biolegend), and 5 ng/ml recombinant mouse IL-23 (Biolegend), and 10 μg/ml anti-mouse interleukin-4 (IL-4, Biolegend) with or without the limonoid. For the Th1 differentiation, the cells were cultured for 3 days in the presence of 2 ng/ml recombinant mouse interleukin-2 (IL-2, Biolegend), and 20 μg/ml anti-mouse IL-4 (Biolegend) with or without indicated compounds. For the Th2 differentiation, the cells were cultured for 3 days in the presence of 2 ng/ml recombinant mouse IL-2 (Biolegend), and 20 ng/ml recombinant mouse IL-4 (Biolegend), and 20 μg/ml anti-mouse IFN-γ (Biolegend) with or without compound. For the Treg differentiation, the cells were cultured for 3 days in the presence of 1 ng/ml recombinant human TGF-β1 (Biolegend), and 5 ng/ml recombinant mouse IL-2 (Biolegend) with or without indicated compounds.
(§2) For polarization of Th17, the cells were re-stimulated in complete RPMI 1640 containing 50 ng/ml PMA, 1 μg/ml ionomycin, and 1× Brefeldin A (Biolegend) for 4 h. For polarization of Th1 and Th2, the cells were re-stimulated in complete RPMI 1640 containing 50 ng/ml PMA and 1 μg/ml ionomycin. After 1 h of incubation, 1× Monensin (Biolegend) was added and incubated for 4 h. The cells were collected and washed with Staining Buffer (BD Biosciences, New Jersey, USA), and then stained with PerCP/Cy5.5 anti-mouse CD4 (Biolegend). And then the cells were fixed for 15 min with fixation buffer (BD Biosciences), permeabilized with BD Wash buffer (1×; BD Biosciences), and stained with PE anti-mouse IL-17A (Biolegend), FITC anti-mouse IFN-γ (Biolegend), and APC anti-mouse IL-4 (Biolegend) or APC anti-mouse Foxp3 (eBioscience). The cells were analyzed by BD FACS Aria III, and the acquired data were analyzed using FlowJo software.

Treg differentiation = test: Flow cytometry, Treg differentiation of naive CD4+ T cells (Foxp3 production); type: cell-based, C57BL/6 mice; conditions: for Foxp3 producing Treg differentiation: Treg-polarizing conditions, 3 days
Protocol: as §1, §2

[2] = tested on: human peripheral blood mononuclear cells (PBMCs); test: Cell viability (MTT) assay of human PBMCs; type: cell-based; conditions: concentration of up to 50 μM, 72 h
Protocol: Human peripheral blood mononuclear cells have been isolated from buffy coat. In brief, the buffy coat provided by Macao Blood Transfusion Centre was mixed with normal saline, and then added to 50 mL centrifuge tube containing Ficoll-Pague plus (Amersham Biosciences). The mixture was separated into several layers after centrifuged at 350 g for 35 min. The layer of mononuclear cells has been collected, and then washed twice by normal saline. These cells were be used for the experiments.
Human PBMCs (1×10^5/well) were cultured in 96-well plates in triplicate in RPMI 1640 medium (Gibco, Paisley, UK) with 10% fetal bovine serum (FBS; Gibco), penicillin (100 units/mL) and streptomycin (100 μg/mL), and different concentration of Amotsangin A, B, C and D were added for 72 h. MTT (5 mg/mL) was added to the cells followed by 4 h incubation, followed by addition of solvent (10% sodium dodecyl sulfate (SDS), 50% N, N-dimethyl formamide, pH 7.2) to dissolve the purple precipitate. The absorbance was recorded on a Microplate UV/VIS Spectrophotometer (TECAN, Switzerland) at 570 nm wavelength on the following day. The percentage of cell viability was calculated using the following formula: Cell viability (%)=(ODtreated−ODblank)/(ODcontrol−ODblank)×100.

Th17 differentiation = test: Flow cytometry, Th17 differentiation of naive CD4+ T cells (IL-17 production); type: cell-based, C57BL/6 mice; conditions: Th17-polarizing conditions; for ratio of the IL-17 production: 3 days; for Th17 cell differentiation (effect in words): up to 25 μM (Amotsangin C up to 10 μM)
Protocol: as §1, §2

ROR-γt protein = test: Western blotting of ROR-γt expression in ROR-γt-plasmid transfected HEK293 cells; type: cell-based, human; conditions: 24 h
Protocol: The transfection assay is preformed according to the manufacturer's instruction of lipofectamine LTX (invitrogen, USA). In brief, HEK293 cells obtained from the American Type Culture Collection (ATCC, Manassas, Va., USA) were seeded in 1.5 ml of DMEM growth media plus 10% FBS at 5×10^5 cells per well. Five hundred micro liter Opti-MEM Reduced Serum Media containing 1.25 μg of DNA was added to the cells to be transfected, and then 1.25 μl of PLUS was added into the above diluted Opti-MEM:DNA solution, gently mixed and incubated for another 5 min at room temperature. Subsequently, lipofectamine LTX™ Reagent was added into the above solution, mixed gently and then incubated 30 min at room temperature to form DNA-lipofectamine LTX Reagent complexes. Finally, 500 μl of the DNA-lipofectamine LTX Reagent complexes was directly added to each well containing cells and mixed gently. The cells were incubated at 37° C. in a CO2 incubator for another 24 h.
After incubated for 24 h, the transfected HEK293 cells were treated with different concentrations of Amotsangin A, B, C or D for another 24 h. Then the cells were lysed with RIPA buffer containing 1× protease inhibitor mix (Roche, USA) to harvest total cellular proteins, and the protein concentration was calculated by the bicinchoninic acid (BCA) kit (Pierce, Rockford, Ill.). The total cellular proteins were then subjected to electrophoresis in 10% SDS/PAGE and transferred to nitrocellulose membranes. After blocking with 5% non-fat milk in a Tris-buffered saline-0.1% Tween-20 buffer (TBST), the membrane was subsequently incubated with specific primary antibodies (RORγt antibody (eBioscience, San Diego, USA) or β-actin antibody (Santa Cruz, USA)) and HRP-conjugated secondary antibodies. A chemiluminescence (ECL) detection system was used to detect the antibody-bound proteins on the membrane.

Th2 differentiation = test: Flow cytometry, Th2 differentiation of naive CD4+ T cells (IL-4 production); type: cell-based, C57BL/6 mice; conditions: for ratio of the IL-4 producing Th2 differentiation: Th2-polarizing conditions, 3 days
Protocol: as §1, §2

SMILES	ROR-γt luciferase reporter activity ([1]; 5 to 50 μM)	Th1 cell differentiation (effect in words) (Th1 differentiation; 25 μM)	ratio of the IFN-γ producing Th1 differentiation (Th1 differentiation; 25 μM)	Treg cell differentiation (effect in words) (Treg differentiation; 25 μM)	cytotoxicity on human PBMCs [2]	ratio of the IL-17 production (Th17 differentiation; 25 μM)	Th17 cell differentiation (effect in words) (Th17 differentiation)	expression of ROR-γt protein (ROR-γt protein; 5 to 50 μM)	Th2 cell differentiation (effect in words) (Th2 differentiation; 25 μM)	ratio of the IL-4 producing Th2 differentiation (Th2 differentiation; 25 μM)	ratio of the IFN-γ producing Th1 differentiation (Th1 differentiation; 10 μM)	ratio of the IL-17 production (Th17 differentiation; 10 μM)	ratio of the IL-4 producing Th2 differentiation (Th2 differentiation; 10 μM)	Foxp3 producing Treg differentiation (Treg differentiation; 25 μM)	ROR-γt luciferase reporter activity ([1]; 1 to 25 μM)	Th1 cell differentiation (effect in words) (Th1 differentiation; 10 μM)	Treg cell differentiation (effect in words) (Treg differentiation; 10 μM)	Foxp3 producing Treg differentiation (Treg differentiation; 10 μM)	expression of ROR-γt protein (ROR-γt protein; 1 to 25 μM)	Th2 cell differentiation (effect in words) (Th2 differentiation; 10 μM)
C=C1[C@@H]([C@@]2(C)C=CC(=O)OC(C)(C)[C@@H]2CC(=O)OC)[C@@H](OC(C)=O)[C@H](OC(=O)C(C)CC)[C@@]2(C)[C@H](c3ccoc3)C[C@H]3O[C@]132 (stereo partly drawn) [Amotsangin A]	dose-dependently reduced; also recorded: inhibits	no inhibitory effect	could not be changed	no inhibitory effect	no significant cytotoxicity	4.28%	can suppress	dose-dependently reduced; also recorded: reduces	no inhibitory effect	14.8%										
C[C@H]1O[C@@H](O[C@H]2[C@@H](O)C[C@H](O[C@H]3[C@@H](O)C[C@H](O[C@H]4CC[C@@]5(C)[C@H](CC[C@@H]6[C@@H]5C[C@@H](O)[C@]5(C)[C@@H](C7=CC(=O)OC7)CC[C@]65O)C4)O[C@@H]3C)O[C@@H]2C)C[C@H](O)[C@@H]1O [digoxin, reference compound]											10.8% and 15.3% and 17.0%	5.43%	15.0% and 10.2%							
C=C1[C@@H]([C@@]2(C)C=CC(=O)OC(C)(C)[C@@H]2CC(=O)OC)[C@@H](OC(C)=O)[C@H](OC(=O)CC)[C@@]2(C)[C@H](c3ccoc3)C[C@H]3O[C@]132 [Amotsangin D]	dose-dependently reduced; also recorded: reduces	no inhibitory effect; also recorded: slight inhibitory effect	14.6%	no inhibitory effect	no significant cytotoxicity	1.59%	can suppress	reduces	could inhibit	11.9%				13.7%						
C=C1[C@@H]([C@@]2(C)C=CC(=O)OC(C)(C)[C@@H]2CC(=O)OC)[C@@H](OC(C)=O)[C@H](OC(=O)C(C)C)[C@@]2(C)[C@H](c3ccoc3)C[C@H]3O[C@]132 [Amotsangin B]	dose-dependently reduced; also recorded: inhibits	can inhibit	2.02%	no effect; also recorded: not effect	no significant cytotoxicity	1.08%	can suppress	reduces	can inhibit	4.11%										
C=C1[C@@H]([C@@]2(C)C=CC(=O)OC(C)(C)[C@@H]2CC(=O)OC)[C@@H](OC(C)=O)[C@H](OC(=O)C(O)C(C)CC)[C@@]2(C)[C@H](c3ccoc3)C[C@H]3O[C@]132 (stereo partly drawn) [Amotsangin C]					no significant cytotoxicity		can suppress				10.2%	1.91%	8.7%		dose-dependently reduced; also recorded: reduces	inhibits; also recorded: can inhibit	inhibits	8.49%	reduced	inhibits
